# Reference: patent US10954269B2, “Anti-inflammatory tripeptides” (Dr. August Wolff Gmbh & Co. KG Arzneimittel, priority 2013, dated 2021)
# [ ]: non-standard residue; d: D form. Aib = CC(C)(N)C(=O)O
# Test system: primary human T-cells
# Assay: Cytokine secretion on protein level in activated primary human T-cells (13-plex FACS / Luminex, supernatant)
# Type: cell-based
# Method in brief: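 PMA/Ionomycin- or IFN-γ-activated cells (48 h) treated with tripeptides; supernatant 13-plex FACS at 48 h and 72 h post-stimulation. Luminex run: PMA/Ionomycin plus compound at 10^−7, 10^−9, 10^−11 M; IFN-γ, IL-17, IL-10 for T cells, IFN-γ for HaCaT.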
# [1] = primary human T-cells stimulated with IFN-γ, 10^−9M
# [2] = primary human T-cells stimulated with IFN-γ, substance 10^−9M
# [3] = primary human T-cells stimulated with PBS, 10^−9M
# [4] = primary human T-cells stimulated with PBS, substance 10^−9M
# [5] = primary human T-cells stimulated with PMA/Ionomycin, 10^−9M
# [6] = primary human T-cells stimulated with PMA/Ionomycin, substance 10^−9M
substance,measurement,setting,value
"H-Lys-[dP]-Thr-OH [K(D)PT, reference compound]",IL-1 cytokine concentration,[1],335.73 pg/mL
same,IL-2 cytokine concentration,[1],79.24 pg/mL
same,IL-4 cytokine concentration,[1],184.31 pg/mL
same,IL-5 cytokine concentration,[1],249.7 pg/mL
same,IL-6 cytokine concentration,[1],93.02 pg/mL
same,IL-9 cytokine concentration,[1],93.74 pg/mL
same,IL-10 cytokine concentration,[1],169.54 pg/mL
same,IL-12p70 cytokine concentration,[1],895.95 pg/mL
same,IL-13 cytokine concentration,[1],72.09 pg/mL
same,IL-17 cytokine concentration,[1],204.05 pg/mL
same,IL-22 cytokine concentration,[1],22747.7 pg/mL
same,TNF-α cytokine concentration,[1],178.65 pg/mL
same,IL-1 cytokine concentration,[2],0 pg/mL
same,IL-2 cytokine concentration,[2],0 pg/mL
same,IL-4 cytokine concentration,[2],0 pg/mL
same,IL-5 cytokine concentration,[2],0 pg/mL
same,IL-6 cytokine concentration,[2],58.47 pg/mL
same,IL-9 cytokine concentration,[2],9.51 pg/mL
same,IL-10 cytokine concentration,[2],33.21 pg/mL
same,IL-12 cytokine concentration,[2],0 pg/mL
same,IL-12p70 cytokine concentration,[2],0 pg/mL
same,IL-13 cytokine concentration,[2],0 pg/mL
same,IL-17 cytokine concentration,[2],0 pg/mL
same,IL-22 cytokine concentration,[2],0 pg/mL
same,TNF-α cytokine concentration,[2],0 pg/mL
same,IFN-γ cytokine concentration,[3],610.05 pg/mL
same,IL-1 cytokine concentration,[3],268.37 pg/mL
same,IL-2 cytokine concentration,[3],435.34 pg/mL
same,IL-4 cytokine concentration,[3],136.29 pg/mL
same,IL-5 cytokine concentration,[3],0 pg/mL
same,IL-6 cytokine concentration,[3],92.39 pg/mL
same,IL-9 cytokine concentration,[3],102.2 pg/mL
same,IL-10 cytokine concentration,[3],126.13 pg/mL
same,IL-12p70 cytokine concentration,[3],114.67 pg/mL
same,IL-13 cytokine concentration,[3],80.48 pg/mL
same,IL-17 cytokine concentration,[3],182.45 pg/mL
same,IL-22 cytokine concentration,[3],0 pg/mL
same,TNF-α cytokine concentration,[3],160.25 pg/mL
same,IFN-γ cytokine concentration,[4],0 pg/mL
same,IL-1 cytokine concentration,[4],147.97 pg/mL
same,IL-2 cytokine concentration,[4],0 pg/mL
same,IL-4 cytokine concentration,[4],0 pg/mL
same,IL-5 cytokine concentration,[4],0 pg/mL
same,IL-6 cytokine concentration,[4],109.89 pg/mL
same,IL-9 cytokine concentration,[4],0 pg/mL
same,IL-10 cytokine concentration,[4],159.09 pg/mL
same,IL-12 cytokine concentration,[4],0 pg/mL
same,IL-12p70 cytokine concentration,[4],0 pg/mL
same,IL-13 cytokine concentration,[4],172.66 pg/mL
same,IL-17 cytokine concentration,[4],127.21 pg/mL
same,IL-22 cytokine concentration,[4],0 pg/mL
same,INF-α cytokine concentration,[4],0 pg/mL
same,TNF-a cytokine concentration,[4],65.47 pg/mL
same,TNF-α cytokine concentration,[4],65.47 pg/mL
same,IFN-γ cytokine concentration,[5],1854.29 pg/mL
same,IL-1 cytokine concentration,[5],69689.2 pg/mL
same,IL-2 cytokine concentration,[5],12000 pg/mL
same,IL-4 cytokine concentration,[5],235.78 pg/mL
same,IL-5 cytokine concentration,[5],173.34 pg/mL
same,IL-6 cytokine concentration,[5],2058.24 pg/mL
same,IL-9 cytokine concentration,[5],162.4 pg/mL
same,IL-10 cytokine concentration,[5],4936.79 pg/mL
same,IL-12p70 cytokine concentration,[5],1703.5 pg/mL
same,IL-13 cytokine concentration,[5],944.87 pg/mL
same,IL-17 cytokine concentration,[5],3116.43 pg/mL
same,IL-22 cytokine concentration,[5],24079 pg/mL
same,TNF-α cytokine concentration,[5],3600 pg/mL
same,IFN-γ cytokine concentration,[6],12070.4 pg/mL
same,IL-1 cytokine concentration,[6],594.38 pg/mL
same,IL-2 cytokine concentration,[6],3486.84 pg/mL
same,IL-4 cytokine concentration,[6],41.83 pg/mL
same,IL-5 cytokine concentration,[6],379.39 pg/mL
same,IL-6 cytokine concentration,[6],1535.49 pg/mL
same,IL-9 cytokine concentration,[6],332.07 pg/mL
same,IL-10 cytokine concentration,[6],877.54 pg/mL
same,IL-12 cytokine concentration,[6],0 pg/mL
same,IL-12p70 cytokine concentration,[6],0 pg/mL
same,IL-13 cytokine concentration,[6],1158.74 pg/mL
same,IL-17 cytokine concentration,[6],1808.01 pg/mL
same,IL-22 cytokine concentration,[6],0 pg/mL
same,INF-α cytokine concentration,[6],12070.42 pg/mL
same,TNF-a cytokine concentration,[6],3998.01 pg/mL
same,TNF-α cytokine concentration,[6],3998.01 pg/mL
H-Phe-Pro-[Aib]-OH [Example 13],secretion / expression of pro-inflammatory cytokines (supernatant),activated primary human T-cells,decreased expression
same,immunomodulatory activity relative to MMF,"cells activated with PMA/Ionomycin and IFN-γ, protein and gene level",higher
same,IL-1 cytokine concentration,[2],162.75 pg/mL
same,IL-2 cytokine concentration,[2],187.16 pg/mL
same,IL-4 cytokine concentration,[2],0 pg/mL
same,IL-5 cytokine concentration,[2],15.32 pg/mL
same,IL-6 cytokine concentration,[2],60.51 pg/mL
same,IL-9 cytokine concentration,[2],0 pg/mL
same,IL-10 cytokine concentration,[2],0 pg/mL
same,IL-12p70 cytokine concentration,[2],0 pg/mL
same,IL-13 cytokine concentration,[2],0 pg/mL
same,IL-17 cytokine concentration,[2],81.59 pg/mL
same,IL-22 cytokine concentration,[2],0 pg/mL
same,TNF-α cytokine concentration,[2],0 pg/mL
same,IL-1 cytokine concentration,[4],0 pg/mL
same,IL-2 cytokine concentration,[4],115.73 pg/mL
same,IL-4 cytokine concentration,[4],73.19 pg/mL
same,IL-5 cytokine concentration,[4],0 pg/mL
same,IL-6 cytokine concentration,[4],113.86 pg/mL
same,IL-9 cytokine concentration,[4],10.84 pg/mL
same,IL-10 cytokine concentration,[4],147.54 pg/mL
same,IL-12p70 cytokine concentration,[4],0 pg/mL
same,IL-13 cytokine concentration,[4],0 pg/mL
same,IL-17 cytokine concentration,[4],65.17 pg/mL
same,IL-22 cytokine concentration,[4],0 pg/mL
same,INF-α cytokine concentration,[4],0 pg/mL
same,TNF-α cytokine concentration,[4],50.36 pg/mL
same,IL-1 cytokine concentration,[6],558.46 pg/mL
same,IL-2 cytokine concentration,[6],2092.22 pg/mL
same,IL-4 cytokine concentration,[6],0 pg/mL
same,IL-5 cytokine concentration,[6],354.06 pg/mL
same,IL-6 cytokine concentration,[6],1185.87 pg/mL
same,IL-9 cytokine concentration,[6],248.66 pg/mL
same,IL-10 cytokine concentration,[6],872.88 pg/mL
same,IL-12p70 cytokine concentration,[6],0 pg/mL
same,IL-13 cytokine concentration,[6],1081.09 pg/mL
same,IL-17 cytokine concentration,[6],1069.51 pg/mL
same,IL-22 cytokine concentration,[6],0 pg/mL
same,INF-α cytokine concentration,[6],7456.27 pg/mL
same,TNF-α cytokine concentration,[6],2706.11 pg/mL
"alpha-melanocyte-stimulating hormone [α-MSH, reference compound]",IL-1 cytokine concentration,[1],229 pg/mL
same,IL-2 cytokine concentration,[1],0 pg/mL
same,IL-4 cytokine concentration,[1],136.29 pg/mL
same,IL-5 cytokine concentration,[1],145.89 pg/mL
same,IL-6 cytokine concentration,[1],70.19 pg/mL
same,IL-9 cytokine concentration,[1],90.3 pg/mL
same,IL-10 cytokine concentration,[1],109.15 pg/mL
same,IL-12p70 cytokine concentration,[1],727.17 pg/mL
same,IL-13 cytokine concentration,[1],59.46 pg/mL
same,IL-17 cytokine concentration,[1],125.8 pg/mL
same,IL-22 cytokine concentration,[1],0 pg/mL
same,TNF-α cytokine concentration,[1],155.15 pg/mL
same,IL-1 cytokine concentration,[2],0 pg/mL
same,IL-2 cytokine concentration,[2],0 pg/mL
same,IL-4 cytokine concentration,[2],60.49 pg/mL
same,IL-5 cytokine concentration,[2],0 pg/mL
same,IL-6 cytokine concentration,[2],64.54 pg/mL
same,IL-9 cytokine concentration,[2],5.27 pg/mL
same,IL-10 cytokine concentration,[2],43.9 pg/mL
same,IL-12 cytokine concentration,[2],0 pg/mL
same,IL-12p70 cytokine concentration,[2],0 pg/mL
same,IL-13 cytokine concentration,[2],0 pg/mL
same,IL-17 cytokine concentration,[2],0 pg/mL
same,IL-22 cytokine concentration,[2],0 pg/mL
same,TNF-α cytokine concentration,[2],18.85 pg/mL
same,IFN-γ cytokine concentration,[3],584.13 pg/mL
same,IL-1 cytokine concentration,[3],233.71 pg/mL
same,IL-2 cytokine concentration,[3],166.83 pg/mL
same,IL-4 cytokine concentration,[3],158.58 pg/mL
same,IL-5 cytokine concentration,[3],26.63 pg/mL
same,IL-6 cytokine concentration,[3],103.97 pg/mL
same,IL-9 cytokine concentration,[3],93.72 pg/mL
same,IL-10 cytokine concentration,[3],154.89 pg/mL
same,IL-12p70 cytokine concentration,[3],100.99 pg/mL
same,IL-13 cytokine concentration,[3],74.71 pg/mL
same,IL-17 cytokine concentration,[3],123.27 pg/mL
same,IL-22 cytokine concentration,[3],2258.05 pg/mL
same,TNF-α cytokine concentration,[3],127.96 pg/mL
same,IFN-γ cytokine concentration,[4],0 pg/mL
same,IL-1 cytokine concentration,[4],0 pg/mL
same,IL-2 cytokine concentration,[4],139.68 pg/mL
same,IL-4 cytokine concentration,[4],72.42 pg/mL
same,IL-5 cytokine concentration,[4],14.37 pg/mL
same,IL-6 cytokine concentration,[4],117.88 pg/mL
same,IL-9 cytokine concentration,[4],34.99 pg/mL
same,IL-10 cytokine concentration,[4],164.01 pg/mL
same,IL-12 cytokine concentration,[4],0 pg/mL
same,IL-12p70 cytokine concentration,[4],0 pg/mL
same,IL-13 cytokine concentration,[4],185.71 pg/mL
same,IL-17 cytokine concentration,[4],139.74 pg/mL
same,IL-22 cytokine concentration,[4],0 pg/mL
same,INF-α cytokine concentration,[4],0 pg/mL
same,TNF-a cytokine concentration,[4],59.06 pg/mL
same,TNF-α cytokine concentration,[4],59.06 pg/mL
same,IFN-γ cytokine concentration,[5],1049.41 pg/mL
same,IL-1 cytokine concentration,[5],69689.2 pg/mL
same,IL-2 cytokine concentration,[5],12000 pg/mL
same,IL-4 cytokine concentration,[5],200.9 pg/mL
same,IL-5 cytokine concentration,[5],145.89 pg/mL
same,IL-6 cytokine concentration,[5],1542.01 pg/mL
same,IL-9 cytokine concentration,[5],187.5 pg/mL
same,IL-10 cytokine concentration,[5],4311.06 pg/mL
same,IL-12p70 cytokine concentration,[5],1161.04 pg/mL
same,IL-13 cytokine concentration,[5],462.62 pg/mL
same,IL-17 cytokine concentration,[5],2836.14 pg/mL
same,IL-22 cytokine concentration,[5],24400.4 pg/mL
same,TNF-α cytokine concentration,[5],3600 pg/mL
same,IFN-γ cytokine concentration,[6],10814.4 pg/mL
same,IL-1 cytokine concentration,[6],530.55 pg/mL
same,IL-2 cytokine concentration,[6],2307.5 pg/mL
same,IL-4 cytokine concentration,[6],70.32 pg/mL
same,IL-5 cytokine concentration,[6],278.92 pg/mL
same,IL-6 cytokine concentration,[6],1241.17 pg/mL
same,IL-9 cytokine concentration,[6],264.59 pg/mL
same,IL-10 cytokine concentration,[6],977.83 pg/mL
same,IL-12 cytokine concentration,[6],0 pg/mL
same,IL-12p70 cytokine concentration,[6],0 pg/mL
same,IL-13 cytokine concentration,[6],1065.69 pg/mL
same,IL-17 cytokine concentration,[6],1660.92 pg/mL
same,IL-22 cytokine concentration,[6],0 pg/mL
same,INF-α cytokine concentration,[6],10814.35 pg/mL
same,TNF-a cytokine concentration,[6],3346.46 pg/mL
same,TNF-α cytokine concentration,[6],3346.46 pg/mL
